The values that follow come from ChEMBL document CHEMBL1147683, “Synthesis of new and potent analogues of anti-tuberculosis agent 5-nitro-furan-2-carboxylic acid 4-(4-benzyl-piperazin-1-yl)-benzylamide with improved bioavailability” (Bioorg Med Chem Lett, 2006).

One data set has as its system Mus musculus. As to the kind of experiment: (§1) Cmax in mouse serum at 300 mg/kg, po. In kind it is ADME, organism-based. Conditions: in vivo. Set-up: dose 300 mg/kg, route oral.
Data set [1] deals with Mycobacterium tuberculosis. As to the kind of experiment: Antituberculosis activity against Mycobacterium tuberculosis. The format is functional.
A short description of data set [2]: Tmax in mouse at 300 mg/kg, po. The format is ADME, organism-based. Set-up: dose 300 mg/kg, route oral. Conditions: in vivo.
Data set [3] is described as follows: as §1. Set-up: dose 300 mg/kg, route oral. The format is ADME, organism-based. The conditions noted are these: serum.
Data set [4] is described as follows: Half life in mouse serum at 300 mg/kg, po. Set-up: dose 300 mg/kg, route oral. The format is ADME, organism-based.

In brackets after ≈: the same amount, converted by molar mass.

`Cl.O=C(NCc1ccc(N2CCN(Cc3ccccc3)CC2)cc1)c1ccc([N+](=O)[O-])o1` registered a Cmax with Mus musculus of 2.24 µg/mL.
As for `CC(C)(C)OC(=O)N1CCCN(c2ccc(CNC(=O)c3ccc([N+](=O)[O-])o3)cc2)CC1`, the MIC90 in data set [1] came to 0.1 µg/mL (≈ 0.225 µM). Moreover, the Tmax in data set [2] came out at 30 min. The peak level in data set [3] (Cmax) was 280 ng/mL. In data set [4], this molecule had a half-life of 450 min.
In the same order, the values of `CC(C)NC(=O)N1CCCN(c2ccc(CNC(=O)c3ccc([N+](=O)[O-])o3)cc2)CC1` are 0.8 µg/mL (≈ 1.86 µM), 30 min, 7400 ng/mL and 120 min.
`O=C(c1ccc([N+](=O)[O-])o1)N1CCc2cc(N3CCSCC3)ccc2C1` had an MIC90 in data set [1] of 0.4 µg/mL (≈ 1.07 µM).
Molecule `C=CCOC(=O)N1CCN(c2ccc(CNC(=O)c3ccc([N+](=O)[O-])o3)cc2)CC1` registered an MIC90 in data set [1] of 0.5 µg/mL (≈ 1.21 µM). The MIC90 values of the last two molecules are within 1.5-fold of each other.
On to `CCCNC(=O)N1CCN(c2ccc(CNC(=O)c3ccc([N+](=O)[O-])o3)cc2)CC1`, for which, in data set [1], the MIC90 is 0.2 µg/mL (≈ 0.481 µM). Besides, the Tmax in data set [2] is 150 min. Also, the highest level in data set [3] (Cmax) was 4800 ng/mL. In data set [4], this molecule had a half-life of 90 min.
In data set [1], `CC(C)NC(=O)N1CCN(c2ccc(CNC(=O)c3ccc([N+](=O)[O-])o3)cc2)CC1` gave an MIC90 of 0.8 µg/mL (≈ 1.93 µM).
With `CCCCOC(=O)N1CCN(c2ccc(CNC(=O)c3ccc([N+](=O)[O-])o3)cc2)CC1`, in data set [1], the MIC90 came out at 0.05 µg/mL (≈ 0.116 µM).
With `CCOC(=O)N1CCCN(c2ccc(CNC(=O)c3ccc([N+](=O)[O-])o3)cc2)CC1`, the MIC90 in data set [1] turned out to be 0.1 µg/mL (≈ 0.24 µM).
`CC(C)(C)OC(=O)N1CCN(c2ccc(CNC(=O)c3ccc([N+](=O)[O-])o3)cc2)CC1` registered an MIC90 in data set [1] of 0.025 µg/mL (≈ 0.0581 µM).
For `CN1CCN(c2ccc3c(c2)CCN(C(=O)c2ccc([N+](=O)[O-])o2)C3)CC1.Cl`, in data set [2], the Tmax worked out at 30 min. Further, in data set [3], the highest level (Cmax) was 280 ng/mL. Also, the half-life in data set [4] is 120 min.
`CCOC(=O)N1CCN(c2ccc(CNC(=O)c3ccc([N+](=O)[O-])o3)cc2)CC1` showed an MIC90 in data set [1] of 0.0062 µg/mL (≈ 0.0154 µM).
Take `CC(C)(C)OC(=O)N1CCN(c2ccc(CNC(=O)c3ccc([N+](=O)[O-])o3)cn2)CC1`: in data set [1], the MIC90 worked out at 0.05 µg/mL (≈ 0.116 µM). The Tmax in data set [2] stood at 30 min. Also, the Cmax in data set [3] was 1230 ng/mL. This molecule had a half-life in data set [4] of 138 min.
Regarding `Cl.O=C(c1ccc([N+](=O)[O-])o1)N1CCc2cc(N3CCN(Cc4ccccc4)CC3)ccc2C1`, the Tmax in data set [2] worked out at 30 min. Besides, the Cmax in data set [3] is 736 ng/mL. The half-life in data set [4] was 210 min.
On to `O=C(NCc1ccc(N2CCN(Cc3ccccc3)CC2)nc1)c1ccc([N+](=O)[O-])o1`, for which, in data set [1], the MIC90 worked out at 0.0062 µg/mL (≈ 0.0147 µM). In data set [2], the Tmax stood at 30 min. Also, the concentration in data set [3] peaked (Cmax) at 1470 ng/mL. Also, the half-life in data set [4] is 78 min.
Turning to `O=C(NCc1ccc(N2CCCN(Cc3ccccc3)CC2)cc1)c1ccc([N+](=O)[O-])o1`, the MIC90 in data set [1] turned out to be 0.8 µg/mL (≈ 1.84 µM).
On the same count and under the same terms, with `CN1CCN(c2ccc3c(c2)CCN(C(=O)c2ccc([N+](=O)[O-])o2)C3)CC1` the figure was 0.2 µg/mL (≈ 0.54 µM); with `O=C(NCc1ccc(N2CCN(Cc3ccccc3)CC2)cc1)c1ccc([N+](=O)[O-])o1`, 0.0125 µg/mL (≈ 0.0297 µM).
Molecule `CCOC(=O)N1CCN(c2ccc(CNC(=O)c3ccc([N+](=O)[O-])o3)cn2)CC1` gave an MIC90 in data set [1] of 0.05 µg/mL (≈ 0.124 µM). In addition, the Tmax in data set [2] came to 150 min. The same molecule gave a Cmax in data set [3] of 6560 ng/mL. This molecule had a half-life in data set [4] of 42 min.
With `COC(=O)N1CCN(c2ccc(CNC(=O)c3ccc([N+](=O)[O-])o3)cc2)CC1`, the MIC90 in data set [1] was determined as 0.1 µg/mL (≈ 0.257 µM).
`CC(C)NC(=O)N1CCN(c2ccc(CNC(=O)c3ccc([N+](=O)[O-])o3)cn2)CC1` showed an MIC90 in data set [1] of 0.56 µg/mL (≈ 1.34 µM). Besides, the Tmax in data set [2] worked out at 150 min. The molecule also gave a Cmax in data set [3] of 22000 ng/mL. Further, the half-life in data set [4] is 30 min.
As for `CC(C)COC(=O)N1CCN(c2ccc(CNC(=O)c3ccc([N+](=O)[O-])o3)cc2)CC1`, the MIC90 in data set [1] amounted to 0.05 µg/mL (≈ 0.116 µM).
Same read-out and setting: as for `O=C(c1ccc([N+](=O)[O-])o1)N1CCc2cc(N3CCN(Cc4ccccc4)CC3)ccc2C1`, the figure is 0.0062 µg/mL (≈ 0.0139 µM).
